Test results: publication PMC8042770, “Odorant Receptors for Detecting Flowering Plant Cues Are Functionally Conserved across Moths and Butterflies” (Molecular Biology and Evolution, 2020)
Read-outs that look alike come from different tables or passages of the source.

Key:
[1] = target: HarmOR63 (Helicoverpa armigera, UniProt A0A7T3N0P9); assay: Xenopus oocyte two-electrode voltage clamp, HarmOR63 + Orco; type: cell-based; conditions: dose response in oocytes, unit M
Description: (§1) In order to expand our analysis on the response properties of HarmORs, we conducted dose–response analyses for the 28 functional HarmORs. […] Six HarmORs (OR3, 22, 48, 50, 56, and 66) could not be activated by any ligand at 10^−5 M. For the other 22 HarmORs, dose–response curves were generated and EC50 values of their major ligands were calculated (fig. 2A and supplementary table S2, Supplementary Material online). The HarmOR repertoire was highly efficient in terpene detection, since the lowest EC50 values were obtained for such compounds. Many of these terpenes have been proposed to be defensive chemicals of plants. […] DMNT is also one of the oviposition deterring compounds found in larval frass of some Lepidoptera species such as S. littoralis ([Anderson et al. 1993]).
(§2) Functional characterization of individual ORs was performed by heterologous expression in Xenopus oocytes combined with a two-electrode voltage-clamp system ([Wang et al. 2010]). […] After incubation in nutrient solution at 18 °C for 3–5 days, the response profile of each oocyte to multiple plant odorants was recorded via a two-electrode voltage clamp (OC-725C oocyte clamp, Warner Instruments, Hamden, CT) at a holding potential of −80 mV. Data were acquired by using a Digidata 1440 A and were analyzed by pCLAMP 10.2 software (Axon Instruments Inc., Union City, CA). […]

[2] = target: HarmOR26 (Helicoverpa armigera, UniProt A0A075T633); assay: Xenopus oocyte two-electrode voltage clamp, HarmOR26 + Orco; type: cell-based; conditions: dose response in oocytes, unit M printed in b12 only
Description: as §1, §2

[3] = target: T1, HarmOR40 (Helicoverpa armigera, UniProt A0A7T3KBF4); assay: Xenopus oocyte two-electrode voltage clamp, HarmOR40 + Orco; type: cell-based; conditions: HarmOR40; dose response in oocytes; unit M printed in text only; read-out: EC50
T1 sequence (A0A7T3KBF4 1-401): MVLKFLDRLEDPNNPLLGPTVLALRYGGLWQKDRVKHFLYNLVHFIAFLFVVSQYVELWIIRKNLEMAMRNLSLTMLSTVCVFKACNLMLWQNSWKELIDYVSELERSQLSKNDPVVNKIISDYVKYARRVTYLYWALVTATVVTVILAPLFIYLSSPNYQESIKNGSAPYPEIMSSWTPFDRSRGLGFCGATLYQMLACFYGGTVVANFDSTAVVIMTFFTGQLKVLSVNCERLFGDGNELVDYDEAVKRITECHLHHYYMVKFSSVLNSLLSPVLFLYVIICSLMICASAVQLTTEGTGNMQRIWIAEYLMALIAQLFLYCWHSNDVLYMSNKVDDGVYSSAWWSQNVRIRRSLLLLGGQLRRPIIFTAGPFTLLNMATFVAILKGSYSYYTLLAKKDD
Description: as §1
(§3) Functional characterization of individual ORs was performed by heterologous expression in Xenopus oocytes combined with a two-electrode voltage-clamp system ([Wang et al. 2010]). Briefly, the full-length gene of each OR and Orco were subcloned into the eukaryotic expression vector pT7TS. cRNAs were generated from linearized expression vectors using the mMESSAGE mMACHINE T7 kit (Ambion, Austin, TX). Then, the cRNA mixture of ORx and Orco (27.6 ng each) was injected (Nanoliter 2010, WPI Inc., Sarasota, FL) into oocytes (stage V–VII). The respective Orcos of different species were used for functional studies of OR42 orthologs except for the four butterfly species (V. tameamea, P. xuthus, D. plexippus, and P. rapae), in which we used the Orco from P. xuthus. After incubation in nutrient solution at 18 °C for 3–5 days, the response profile of each oocyte to multiple plant odorants was recorded via a two-electrode voltage clamp (OC-725C oocyte clamp, Warner Instruments, Hamden, CT) at a holding potential of −80 mV. Data were acquired by using a Digidata 1440 A and were analyzed by pCLAMP 10.2 software (Axon Instruments Inc., Union City, CA).
(§4) Stock solutions of each odorant were prepared at 1 M using DMSO as a solvent, and each odorant was diluted in 1× Ringer’s solution to the indicated concentrations for electrophysiological recording. For functional screening of each HarmOR, a panel of 67 odorants belonging to three types of chemical classes: terpenes, aromatics, and aliphatics (short-chain fatty acid) were used (supplementary table S1, Supplementary Material online). For functional studies of OR42 orthologs from different species, six odorants including PAA, benzaldehyde, (E)-2-hexen-1-al, cinnamaldehyde, 2-phenylethanol, and heptanal were used.

[4] = tested on: HarmOR repertoire; assay: Responses of the 28 functional HarmORs across odorant doses (PCA of oocyte currents); type: cell-based, Helicoverpa armigera; conditions: odorant 10^−7 M
Source text: Vectors quantifying the responses of the 28 ORs to each odorant were projected onto a 3D landscape. This 3D representation captured 78.34% (10^−4 M), 65.11% (10^−5 M), 68.89% (10^−6 M), and 84.52% (10^−7 M) of the variation in the original 28D data set across different odorant concentrations. […] In addition, the capacity of the H. armigera odor space was highly dependent on odorant concentration. As the concentrations of odorants decreased, their positions in the odor space converged, with the ability to discriminate different odorants diminishing.
as §3, §4
Graphs and data statistics of OR response spectra, dose responses, EAG, and behavioral experiments were generated by Prism 7 (GraphPad Software, La Jolla, CA). A heat map was generated in Excel 2010 (Microsoft Corporation, WA). […] For tuning breadth analysis, the kurtosis values (K) were calculated by SPSS 22 (SPSS Inc., Chicago, IL) and were used to define the tuning spectra width, where smaller K values represent broader tuning spectra (fig. 1B). […]

[5] = target: HarmOR55 (Helicoverpa armigera, UniProt A0A7T3N2G6); assay: Xenopus oocyte two-electrode voltage clamp, HarmOR55 + Orco; type: cell-based; conditions: dose response in oocytes, unit M
Description: as §1, §2

[6] = target: HarmOR8 (Helicoverpa armigera, UniProt A0A7T3N2E2); assay: Xenopus oocyte two-electrode voltage clamp, HarmOR8 + Orco; type: cell-based; conditions: dose response in oocytes, unit M
Description: as §1, §2

[7] = target: HarmOR35 (Helicoverpa armigera, UniProt A0A7T3N1A8); assay: Xenopus oocyte two-electrode voltage clamp, HarmOR35 + Orco; type: cell-based
Description: as §1, §2

[8] = target: HarmOR25 (Helicoverpa armigera, UniProt A0A7T3KAG7); assay: Xenopus oocyte two-electrode voltage clamp, HarmOR25 + Orco; type: cell-based
Description: as §1, §2

[9] = target: HarmOR29 (Helicoverpa armigera, UniProt A0A7T3KAG0); assay: Xenopus oocyte two-electrode voltage clamp, HarmOR29 + Orco; type: cell-based; conditions: dose response in oocytes, unit M
Description: as §1, §2

[10] = target: T2, HarmOR60 (Helicoverpa armigera, UniProt A0A7T3N1B9); assay: Xenopus oocyte two-electrode voltage clamp, HarmOR60 + Orco; type: cell-based
T2 sequence (A0A7T3N1B9 1-391): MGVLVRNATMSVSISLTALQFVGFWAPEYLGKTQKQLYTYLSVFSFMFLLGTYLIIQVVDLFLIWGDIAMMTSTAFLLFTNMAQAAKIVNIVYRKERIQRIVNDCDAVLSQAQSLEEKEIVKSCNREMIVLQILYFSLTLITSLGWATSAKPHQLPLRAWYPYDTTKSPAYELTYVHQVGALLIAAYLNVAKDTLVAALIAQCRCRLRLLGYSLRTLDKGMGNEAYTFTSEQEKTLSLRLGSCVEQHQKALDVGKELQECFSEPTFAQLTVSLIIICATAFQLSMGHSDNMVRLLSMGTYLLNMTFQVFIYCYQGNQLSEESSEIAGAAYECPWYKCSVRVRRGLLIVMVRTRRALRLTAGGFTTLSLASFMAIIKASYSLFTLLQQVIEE
Description: as §1
as §3, with “CA). […]” for “CA).”

[11] = target: HarmOR31 (Helicoverpa armigera, UniProt A0A7T3N2E9); assay: Xenopus oocyte two-electrode voltage clamp, HarmOR31 + Orco; type: cell-based
Source text: In order to expand our analysis on the response properties of HarmORs, we conducted dose–response analyses for the 28 functional HarmORs. […] Many of these terpenes have been proposed to be defensive chemicals of plants.
Briefly, the full-length gene of each OR and Orco were subcloned into the eukaryotic expression vector pT7TS. cRNAs were generated from linearized expression vectors using the mMESSAGE mMACHINE T7 kit (Ambion, Austin, TX). […] The respective Orcos of different species were used for functional studies of OR42 orthologs except for the four butterfly species (V. tameamea, P. xuthus, D. plexippus, and P. rapae), in which we used the Orco from P. xuthus.
as §4

[12] = target: HarmOR7 (Helicoverpa armigera, UniProt A0A7T3KAD7); assay: Xenopus oocyte two-electrode voltage clamp, HarmOR7 + Orco; type: cell-based
Description: as §1, §2

Chain of HarmOR25 (A0A7T3KAG7 1-398): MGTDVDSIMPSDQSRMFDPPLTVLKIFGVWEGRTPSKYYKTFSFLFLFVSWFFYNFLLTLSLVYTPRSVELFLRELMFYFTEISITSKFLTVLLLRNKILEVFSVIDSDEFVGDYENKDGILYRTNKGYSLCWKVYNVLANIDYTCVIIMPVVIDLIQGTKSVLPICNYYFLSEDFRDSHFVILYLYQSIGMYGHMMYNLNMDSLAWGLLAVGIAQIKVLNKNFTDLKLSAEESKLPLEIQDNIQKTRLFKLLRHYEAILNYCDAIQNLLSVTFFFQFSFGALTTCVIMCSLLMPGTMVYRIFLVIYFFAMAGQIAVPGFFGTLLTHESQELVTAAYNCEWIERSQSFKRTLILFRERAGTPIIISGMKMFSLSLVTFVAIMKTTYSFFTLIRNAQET
Chain of HarmOR7 (A0A7T3KAD7 1-411): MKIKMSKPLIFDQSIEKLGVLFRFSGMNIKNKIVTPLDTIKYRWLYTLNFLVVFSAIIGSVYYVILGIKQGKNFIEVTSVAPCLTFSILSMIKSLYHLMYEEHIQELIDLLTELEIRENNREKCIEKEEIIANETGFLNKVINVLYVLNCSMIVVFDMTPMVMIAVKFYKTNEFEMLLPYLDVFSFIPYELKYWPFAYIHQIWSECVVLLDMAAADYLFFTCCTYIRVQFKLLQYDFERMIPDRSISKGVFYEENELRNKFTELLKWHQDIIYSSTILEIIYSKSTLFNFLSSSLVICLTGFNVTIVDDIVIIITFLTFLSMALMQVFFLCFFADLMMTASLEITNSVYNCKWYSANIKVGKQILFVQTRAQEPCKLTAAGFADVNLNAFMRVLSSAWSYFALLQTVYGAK
Chain of HarmOR63 (A0A7T3N0P9 1-407): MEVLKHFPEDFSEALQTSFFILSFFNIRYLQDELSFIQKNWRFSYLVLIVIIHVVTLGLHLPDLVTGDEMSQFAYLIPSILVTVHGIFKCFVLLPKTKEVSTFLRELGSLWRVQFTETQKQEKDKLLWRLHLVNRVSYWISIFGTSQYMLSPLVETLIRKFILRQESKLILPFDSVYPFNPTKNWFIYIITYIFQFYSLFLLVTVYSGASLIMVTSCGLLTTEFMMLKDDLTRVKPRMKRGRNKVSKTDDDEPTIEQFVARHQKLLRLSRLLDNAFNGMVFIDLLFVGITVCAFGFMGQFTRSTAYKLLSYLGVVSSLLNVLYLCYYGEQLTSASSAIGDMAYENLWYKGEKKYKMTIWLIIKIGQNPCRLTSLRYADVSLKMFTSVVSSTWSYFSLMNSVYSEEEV
Chain of HarmOR8 (A0A7T3N2E2 1-406): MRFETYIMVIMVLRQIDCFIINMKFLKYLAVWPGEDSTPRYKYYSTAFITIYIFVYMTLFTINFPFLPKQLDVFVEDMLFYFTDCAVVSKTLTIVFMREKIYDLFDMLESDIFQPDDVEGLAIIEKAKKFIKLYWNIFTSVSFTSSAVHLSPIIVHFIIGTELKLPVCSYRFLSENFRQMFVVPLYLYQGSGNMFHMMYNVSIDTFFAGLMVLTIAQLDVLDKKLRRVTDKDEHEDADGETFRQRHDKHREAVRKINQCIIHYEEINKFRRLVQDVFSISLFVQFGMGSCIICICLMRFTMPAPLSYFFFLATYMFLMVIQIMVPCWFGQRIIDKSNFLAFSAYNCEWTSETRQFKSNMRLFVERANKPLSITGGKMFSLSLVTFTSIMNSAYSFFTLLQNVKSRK
Chain of HarmOR26 (A0A075T633 1-408): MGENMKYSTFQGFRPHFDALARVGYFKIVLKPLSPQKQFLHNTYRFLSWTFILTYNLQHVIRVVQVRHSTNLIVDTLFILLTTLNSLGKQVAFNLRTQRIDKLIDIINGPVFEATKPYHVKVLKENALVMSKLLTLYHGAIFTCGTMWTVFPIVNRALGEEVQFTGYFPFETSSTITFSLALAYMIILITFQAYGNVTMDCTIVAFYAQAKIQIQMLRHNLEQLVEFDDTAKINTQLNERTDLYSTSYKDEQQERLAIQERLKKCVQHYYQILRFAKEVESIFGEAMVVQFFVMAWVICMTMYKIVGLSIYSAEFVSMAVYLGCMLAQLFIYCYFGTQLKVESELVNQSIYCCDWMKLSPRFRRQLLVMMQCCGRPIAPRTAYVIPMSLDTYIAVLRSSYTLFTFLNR
Chain of HarmOR55 (A0A7T3N2G6 entry or part of it): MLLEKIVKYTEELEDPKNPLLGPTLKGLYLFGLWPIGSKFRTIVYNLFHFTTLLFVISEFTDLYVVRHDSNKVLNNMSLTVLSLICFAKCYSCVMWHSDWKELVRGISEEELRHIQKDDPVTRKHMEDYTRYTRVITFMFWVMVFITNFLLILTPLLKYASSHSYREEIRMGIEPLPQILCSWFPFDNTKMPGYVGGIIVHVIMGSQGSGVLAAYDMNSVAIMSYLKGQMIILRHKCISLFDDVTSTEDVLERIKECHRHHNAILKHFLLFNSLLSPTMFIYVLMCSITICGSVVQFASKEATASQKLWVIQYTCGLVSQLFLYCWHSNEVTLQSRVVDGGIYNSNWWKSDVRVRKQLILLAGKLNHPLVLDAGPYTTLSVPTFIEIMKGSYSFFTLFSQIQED
Chain of HarmOR29 (A0A7T3KAG0 1-395): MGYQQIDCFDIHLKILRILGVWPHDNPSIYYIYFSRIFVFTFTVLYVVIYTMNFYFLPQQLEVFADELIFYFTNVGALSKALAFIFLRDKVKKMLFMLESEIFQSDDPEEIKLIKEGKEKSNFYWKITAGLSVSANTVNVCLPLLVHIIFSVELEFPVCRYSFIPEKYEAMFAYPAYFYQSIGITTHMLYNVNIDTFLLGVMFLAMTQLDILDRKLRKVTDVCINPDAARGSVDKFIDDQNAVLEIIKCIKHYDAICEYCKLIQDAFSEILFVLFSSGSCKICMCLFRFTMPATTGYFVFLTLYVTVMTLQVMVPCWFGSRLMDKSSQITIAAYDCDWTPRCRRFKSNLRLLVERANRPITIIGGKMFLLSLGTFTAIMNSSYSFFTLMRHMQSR
Chain of HarmOR35 (A0A7T3N1A8 entry or part of it): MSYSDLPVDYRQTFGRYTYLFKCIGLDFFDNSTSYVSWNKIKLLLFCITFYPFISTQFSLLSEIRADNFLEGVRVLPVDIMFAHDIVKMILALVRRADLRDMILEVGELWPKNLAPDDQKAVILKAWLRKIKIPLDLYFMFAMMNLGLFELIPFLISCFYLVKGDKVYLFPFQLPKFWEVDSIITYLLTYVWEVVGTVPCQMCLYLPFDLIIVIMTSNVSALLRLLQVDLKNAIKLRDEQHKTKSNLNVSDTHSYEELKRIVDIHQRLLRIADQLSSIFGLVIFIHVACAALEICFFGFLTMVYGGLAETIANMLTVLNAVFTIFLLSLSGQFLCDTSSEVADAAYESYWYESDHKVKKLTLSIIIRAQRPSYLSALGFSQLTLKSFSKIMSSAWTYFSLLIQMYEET
Chain of HarmOR31 (A0A7T3N2E9 entry or part of it): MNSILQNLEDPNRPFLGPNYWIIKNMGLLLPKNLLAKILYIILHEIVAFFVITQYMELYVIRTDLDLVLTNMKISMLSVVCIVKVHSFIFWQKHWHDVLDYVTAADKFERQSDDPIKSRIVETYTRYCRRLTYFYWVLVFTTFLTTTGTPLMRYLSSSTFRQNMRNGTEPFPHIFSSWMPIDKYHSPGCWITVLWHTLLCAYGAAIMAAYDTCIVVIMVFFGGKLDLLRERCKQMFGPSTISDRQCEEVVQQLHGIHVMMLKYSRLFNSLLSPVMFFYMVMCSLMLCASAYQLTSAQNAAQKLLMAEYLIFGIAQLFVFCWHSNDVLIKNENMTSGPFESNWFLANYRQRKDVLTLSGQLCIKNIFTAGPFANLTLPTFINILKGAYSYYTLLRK

Q: How did the EC50 [1] turn out when `C=C1CC/C=C(\C)CC[C@@H]2[C@@H]1CC2(C)C` [(-)-trans-Caryophyllene] was run?
A: 88.2 µM

Q: What does the source list for `C=CC(C)(O)CC/C=C(\C)CCC=C(C)C` (stereo not shown) [(E)-Nerolidol]?
A: EC50 [2]: 0.0289 µM; EC50 [3]: 12.5 µM; response of the HarmOR repertoire [4]: still responded; EC50 [5]: 88.1 µM

Q: Which EC50 [6] does the source give for `C=CCc1ccc(OC)c(OC)c1` [Methyl eugenol] here?
A: 106 µM

Q: Which EC50 [1] does the source give for `C=C1CC[C@H]2O[C@]2(C)CC[C@@H]2[C@@H]1CC2(C)C` [(-)-Caryophyllene oxide] here?
A: 52.1 µM

Q: `C=CCc1ccc(O)c(OC)c1` [Eugenol] was tested. Which EC50 [7] did it give?
A: 42.5 µM

Q: What about the EC50 ([8]; HarmOR25, dose response in oocytes, unit M) of the same compound?
A: 81.6 µM

Q: What about the “main ligand of HarmOR25” value ([8]; clade E) of the same compound?
A: main ligand

Q: And the EC50 [9]?
A: 18.9 µM

Q: And the EC50 ([10]; HarmOR60, dose response in oocytes, unit M)?
A: 1.72 µM

Q: And the “main ligand of HarmOR60” value ([10]; clade B)?
A: main ligand

Q: How did the EC50 [11] turn out when `COC(=O)Cc1ccccc1` [Methyl phenylacetate] was run?
A: 29.5 µM

Q: What about the EC50 [12] of the same compound?
A: 107 µM

Q: How did the EC50 ([12]; HarmOR7, dose response in oocytes, unit M, read-out: EC50) turn out when `CC(=O)OCc1ccccc1` [Benzyl acetate] was run?
A: 60.7 µM
